In data set [1] the test system is HFL1. Description: Antiproliferative activity against human fibroblast HFL1 cells. Type of data set: functional. Particulars: read-out: ED50 (the source's name).
In data set [2] the test system is T-24. Description: Induction of apoptosis in T24 cells using TUNEL assay. Type of data set: functional, cell-based. Particulars: Homo sapiens.
A short description of data set [3]: Dissociation constant, pKa of the compound. The format is physicochemical.
Data set [4] deals with SV3T3. In words: Antiproliferative activity against virus transformed mouse fibroblast 3T3 SV40 cells. Type of data set: functional. Particulars: read-out: ED50 (the source's name).
The test system of data set [5] is T-24. Description: Antiproliferative activity against human bladder carcinoma T24 cells. Type of data set: functional. The conditions noted are these: read-out: ED50 (the source's name).
In data set [6] the test system is BALB/3T3. Description: Antiproliferative activity against mouse fibroblast 3T3 A31 cells. Type of data set: functional. The conditions noted are these: read-out: ED50 (the source's name).
Data set [7] relates to T-24. In words: Ability to prime Heparan sulfate synthesis in T24 cells at 0.1 mM. Type of data set: functional, Homo sapiens.

Experimental findings from ChEMBL document CHEMBL1138989, “Selective antiproliferative activity of hydroxynaphthyl-beta-D-xylosides” (J Med Chem, 2006) are described below.

By pKa is commonly meant the pH at which an ionisable group is half protonated.

SMILES strings stand for the structures. Active and inactive are the calls of the source. The calls are words filed in the database; no cut-off is given here.

In the case of `Oc1ccc2cc(O[C@@H]3OC[C@@H](O)[C@H](O)[C@H]3O)ccc2c1`, the EC50 in data set [1] is 500 µM; in data set [4], 320 µM; in data set [5], 100 µM; in data set [6], 440 µM. In data set [2], the outcome was Active. For the same molecule, the pKa in data set [3] was determined as 9.63. Further, the Activity in data set [7] is 30%.
As to `Oc1ccc2cc(O)ccc2c1`, the figures for the EC50 in data set [1] and in data set [5] were < 25 µM and < 10 µM, respectively.
For the molecule `Oc1cccc2ccc(O[C@@H]3OC[C@@H](O)[C@H](O)[C@H]3O)cc12`, the EC50 in data set [1] was 330 µM; in data set [4], 510 µM; in data set [5], 420 µM; in data set [6], 160 µM. This molecule also yielded a pKa in data set [3] of 9.29. In data set [7], this molecule registered an Activity of 27%.
Regarding `Oc1cccc2cccc(O)c12`, the EC50 is 20 µM in data set [1] and 10 µM in data set [5].
As for `Oc1ccc2ccc(O)cc2c1`, the EC50 in data set [1] was 70 µM; in data set [5], 30 µM.
As to `Oc1cc2ccccc2cc1O[C@@H]1OC[C@@H](O)[C@H](O)[C@H]1O`, the EC50 in data set [1] is 190 µM; in data set [4] it was 180 µM; in data set [5] it was 400 µM; in data set [6], 25 µM. Further, in data set [3], the pKa came out at 8.76. For the same molecule, in data set [7], the Activity came to 28%.
`Oc1ccc2c(O)cccc2c1`: the EC50 in data set [1] turned out to be 70 µM; in data set [5], 20 µM.
The like results for `Oc1cc2ccccc2cc1O` were, in that order, 40 µM and 30 µM.
For `Oc1c(O[C@@H]2OC[C@@H](O)[C@H](O)[C@H]2O)ccc2ccccc12`, the EC50 in data set [1] worked out at 40 µM; in data set [4], 120 µM; in data set [5], 160 µM; in data set [6] it was 120 µM. The molecule also showed a pKa in data set [3] of 8.72. In data set [7], this molecule yielded an Activity of 22%.
Regarding `Oc1cccc2c(O[C@@H]3OC[C@@H](O)[C@H](O)[C@H]3O)cccc12`, the EC50 in data set [1] is 500 µM; in data set [4], > 500 µM; in data set [5], 470 µM; in data set [6] it was > 500 µM. The same molecule came in with a pKa in data set [3] of 9.16. Also, in data set [7], the Activity came to 29%.
In the case of `Oc1cc(O)c2ccccc2c1`, the EC50 turned out to be 100 µM in data set [1] and 70 µM in data set [5].
In the case of `Oc1ccc2cccc(O[C@@H]3OC[C@@H](O)[C@H](O)[C@H]3O)c2c1`, the EC50 in data set [1] was 370 µM; in data set [4], 550 µM; in data set [5], 370 µM; in data set [6] it was 260 µM. For the same molecule, the pKa in data set [3] worked out at 9.35. This molecule registered an Activity in data set [7] of 15%.
For the molecule `Oc1cccc2cccc(O[C@@H]3OC[C@@H](O)[C@H](O)[C@H]3O)c12`, the EC50 was 180 µM in data set [1], 340 µM in data set [4], 220 µM in data set [5] and 185 µM in data set [6]. The molecule further had a pKa in data set [3] of 10.1. This molecule also showed an Activity in data set [7] of 27%.
On to `Oc1ccc2ccccc2c1O`, for which the EC50 turned out to be 25 µM in data set [1] and 13 µM in data set [5].
In the case of `Oc1ccc2cccc(O)c2c1`, the figures for the EC50 in data set [1] and in data set [5] were < 25 µM and < 10 µM, respectively.
As to `Oc1ccc2ccc(O[C@@H]3OC[C@@H](O)[C@H](O)[C@H]3O)cc2c1`, the EC50 in data set [1] was 500 µM; in data set [4], 460 µM; in data set [5], 500 µM; in data set [6], 300 µM. Further, in data set [3], the pKa came out at 9.41. Also, the Activity in data set [7] is recorded as 37%.
Turning to `Oc1cccc2cc(O[C@@H]3OC[C@@H](O)[C@H](O)[C@H]3O)ccc12`, the EC50 in data set [1] was 500 µM; in data set [4] it was 430 µM; in data set [5] it was 600 µM; in data set [6], > 500 µM. Moreover, the pKa in data set [3] stood at 9.17. In data set [7], this molecule yielded an Activity of 12%.
Take `Oc1cccc2c(O)cccc12`: the EC50 in data set [1] was 20 µM; in data set [5], < 10 µM.
On to `Oc1cc(O[C@@H]2OC[C@@H](O)[C@H](O)[C@H]2O)cc2ccccc12`, for which the EC50 in data set [1] was 320 µM; in data set [4] it was 575 µM; in data set [5] it was 25 µM; in data set [6] it was 410 µM. In data set [3], this molecule had a pKa of 8.66. For the same molecule, the Activity in data set [7] was 20%.
With `Oc1ccc(O)c2ccccc12`, the EC50 in data set [1] is 1 µM; in data set [5], 0.7 µM.
For the molecule `Oc1cc(O[C@@H]2OC[C@@H](O)[C@H](O)[C@H]2O)c2ccccc2c1`, the EC50 in data set [1] was 240 µM; in data set [4], 275 µM; in data set [5], 100 µM; in data set [6], 130 µM. The molecule also had a pKa in data set [3] of 9.22. This molecule also showed an Activity in data set [7] of 14%.
Regarding `Oc1ccc(O[C@@H]2OC[C@@H](O)[C@H](O)[C@H]2O)c2ccccc12`, the EC50 in data set [1] amounted to 6 µM; in data set [4], 105 µM; in data set [5], 1 µM; in data set [6], 165 µM. Also, in data set [3], the pKa worked out at 9.4. This molecule came in with an Activity in data set [7] of 12%.
In the case of `O[C@@H]1[C@@H](O)[C@H](Oc2ccc3ccccc3c2)OC[C@H]1O`, in data set [2], the result was inactive.
Regarding `Oc1ccc2c(O[C@@H]3OC[C@@H](O)[C@H](O)[C@H]3O)cccc2c1`, the EC50 is 370 µM in data set [1], > 500 µM in data set [4], 125 µM in data set [5] and 210 µM in data set [6]. In addition, in data set [3], the pKa was 9.34. The molecule also registered an Activity in data set [7] of 13%.
As to `Oc1ccc2ccccc2c1O[C@@H]1OC[C@@H](O)[C@H](O)[C@H]1O`, the EC50 stood at 80 µM in data set [1], 65 µM in data set [4], 150 µM in data set [5] and 10 µM in data set [6]. In data set [3], this molecule had a pKa of 8.63. The Activity in data set [7] came out at 2%.
